Residues, ends and D or L forms follow the SMILES beside them.
Experiments:
[1] = tested on: BALB/c mice challenged with lethal dose of LPS; assay: Anti-LPS survival assay; format: in vivo, mouse; settings: LPS 15 mgKg−1 i.p. plus peptide single dose 5 mgKg−1, 7 days, five mice per group, LPS-only mice all died within 24 h
Method: For survival assay, mice were challenged intraperitoneally with LPS at a lethal dose of 15 mgKg^−1 E. coli 0111:B4[5]. Control mice were injected with an equal volume of PBS. G13P-Chr-1 at a single dose of 5 mgKg^−1 was injected in the mice groups that were already administered with 15 mgKg^−1 of LPS. Each group contained five mice. The mortality of mice was monitored up to 7 days and weight change was monitored every day. The peptide G13P-Chr-1 only was also injected in two groups of mice at 5 mgKg^−1 and 10 mgKg^−1 to check any mortality in mice by peptide only treatment.

[2] = tested on: LPS-induced TNF-α, IL-6 and IFN-γ in serum of BALB/c mice; assay: In vivo inhibition of LPS mediated cytokine production; design: species or system mouse; settings: LPS 10 mgKg−1 plus peptide 3 mgKg−1, 1, 2, 4, 6 h, ELISA, versus LPS only
Method: Enzyme-linked immunosorbent assays (ELISAs) were carried out to estimate the amount of tumor necrosis factor alpha (TNF-α) and interleukin-1β (IL-1β) secreted by LPS-treated THP-1 cells in the presence of peptides after 4–6 h of incubation. The levels of these cytokines in the culture supernatant of untreated and LPS-treated cells were taken as the negative and positive respectively, to calculate the percent inhibition by the peptides. For RANTES estimation the peptide LPS incubation was kept up to 24 h. The experiments were repeated twice reported as percentage inhibition. The absorbance of LPS treated cell supernatant was taken as zero inhibition. Similar ELISAs were performed to estimate the amount of TNF-α IL-6 and IFN-γ secreted by BALB/c mouse blood, which was collected from the orbital sinus at different time points post LPS injection, by using enzyme-linked immunosorbent assay kits for mouse TNF-α (BD Biosciences), IL-6 (BD Biosciences) and IFN-γ (BD Biosciences).
All the mice were divided into three experimental groups. Except the control group which was injected with PBS only, the other two groups were challenged with E. coli O111: B4 LPS at 10 mgkg^−1 of body weight in the presence and in the absence of 3 mgkg^−1 peptide. Blood was collected 1, 2, 4 and 6 h post LPS and peptide injection by the retro-orbital bleeding of mice. […]

CC[C@H](C)[C@H](NC(=O)[C@H](C)NC(=O)[C@H](CCCCN)NC(=O)[C@@H]1CCCN1C(=O)[C@H](C)NC(=O)[C@H](Cc1c[nH]cn1)NC(=O)[C@@H](NC(=O)[C@H](C)NC(=O)CNC(=O)[C@H](CCCCN)NC(=O)[C@@H](NC(=O)[C@H](CC(C)C)NC(=O)[C@H](Cc1c[nH]c2ccccc12)NC(=O)CNC(=O)[C@H](Cc1ccccc1)NC(=O)[C@@H](N)Cc1ccccc1)[C@@H](C)CC)[C@@H](C)CC)C(=O)N[C@@H](Cc1c[nH]cn1)C(=O)NCC(=O)N[C@@H](CC(C)C)C(=O)N[C@H](C(=O)N[C@@H](Cc1c[nH]cn1)C(=O)N[C@@H](CCCNC(=N)N)C(=O)N[C@@H](CCCNC(=N)N)C(=O)N[C@@H](CCCNC(=N)N)C(=O)N[C@@H](Cc1c[nH]cn1)C(N)=O)[C@@H](C)CC [Peptide G13P-Chr-1] (H-FFGWLIKGAIHAPKAIHGLIHRRRH-NH2) was tested. Which survival of mice [1] did it give?
Its survival of mice is 40%.

And the “LPS-induced production of TNF-α, IL-6 and IFN-γ in serum” value [2]?
The value was “significant reduction”.
